Assay results: patent US11319303B2 (WIGEN BIOMEDICINE TECHNOLOGY (SHANGHAI) CO., LTD., priority 2017, dated 2022)
Read-outs that look alike come from different tables or passages of the source.

Target: LC3B (Homo sapiens, UniProt Q9GZQ8)
Test: Fluorescence Polarization (FP) Assay: displacement of FITC-labeled peptide from GST-LC3B
Type: binding
Description: The compounds of the present invention for regulating the autophagy-related protein LC3B were tested by Fluorescence Polarization (FP) Assay.
Fluorescence Polarization (FP) Assay Test

[1] = Fluorescence Polarization assay, GST-LC3B 180 nM, FITC-labeled peptide 18 nM, 25° C., read-out: IC50

Row | SMILES | IC50 [1] [µM] | IC50 [µM]
1 | O=C1CC(c2ccc(C(=O)O)cc2)CC(=O)C1=CNCCN1CCOCC1 (centres unmarked) [Compound 260, 4-(4-(((2-morpholinoethyl)amino)methylene)-3,5-dioxocyclohexyl) benzoic acid] | < 3 | 
2 | CN(C)C=C1C(=O)CC(C2CCCCC2)CC1=O (centres unmarked) [Compound 262, 4-((dimethylamino)methylene)-[1,1′-bi(cyclohexane)]-3,5-dione] |  | < 3
3 | CN(C)C=C1C(=O)CC(c2ccc(Cl)nc2)CC1=O (centres unmarked) [Compound 266, 5-(6-chloropyridin-3-yl)-2-((dimethylamino)methylene) cyclohexane-1,3-dione] | 3 to 15 | 
4 | CC(C)CC1CC(=O)C(=CN(C)C)C(=O)C1 (centres unmarked) [Compound 276, 2-((dimethylamino)methylene)-5-isobutylcyclo-hexane-1,3-dione] | 15 to 100 | 
5 | CN(C)C=C1C(=O)CC(c2cccc3ccccc23)CC1=O (centres unmarked) [Compound 277, 2-((dimethylamino)methylene)-5-(naphthalen-1-yl)cyclohexane-1,3-dione] | < 3 | 
6 | CN(C)C=C1C(=O)CC(c2ccc3ccccc3c2)CC1=O (centres unmarked) [Compound 278, 2-((dimethylamino)methylene)-5-(naphthalen-2-yl)cyclohexane-1,3-dione] | < 3 | 
7 | CC(C)Cn1cccc1C1CC(=O)C(=CN(C)C)C(=O)C1 (centres unmarked) [Compound 284, 2-((dimethylamino)methylene)-5-(1-isobutyl-1H-pyrrol-2-yl)cyclohexane-1,3-dione] | 3 to 15 | 
8 | CN(C)C=C1C(=O)CC(c2n[nH]c3ccccc23)CC1=O (centres unmarked) [Compound 286, 2-((dimethylamino)methylene)-5-(1H-indazol-3-yl)cyclohexane-1,3-dione] | < 3 | 
9 | Cc1cccc(Cc2ccccc2C2CC(=O)C(=CN(C)C)C(=O)C2)c1 (centres unmarked) [Compound 290, 2-((dimethylamino)methylene)-5-(2-(3-methylbenzyl)phenyl) cyclohexane-1,3-dione] | 3 to 15 | 
10 | Cc1ccc2c(C3CC(=O)C(=CN(C)C)C(=O)C3)c[nH]c2c1 (centres unmarked) [Compound 293, 2-((dimethylamino)methylene)-5-(6-methyl-1H-indol-3-yl)cyclohexane-1,3-dione] | 3 to 15 | 
11 | CN(C)C=C1C(=O)CC(c2cn(C)c3ccccc23)CC1=O (centres unmarked) [Compound 294, 2-((dimethylamino)methylene)-5-(1-methyl-1H-indol-3-yl)cyclohexane-1,3-dione] | < 3 | 
12 | CN(C)C=C1C(=O)CC(c2cccc3c2ccn3C)CC1=O (centres unmarked) [Compound 295, 2-((dimethylamino)methylene)-5-(1-methyl-1H-indol-4-yl)cyclohexane-1,3-dione] | 3 to 15 | 
13 | Cc1cccc2c(C3CC(=O)C(=CN(C)C)C(=O)C3)c[nH]c12 (centres unmarked) [Compound 297, 2-((dimethylamino)methylene)-5-(7-methyl-1H-indol-3-yl)cyclohexane-1,3-dione] | < 3 | 
14 | CN(C)CCNC=C1C(=O)CC(c2cccc(F)c2F)CC1=O (centres unmarked) [Compound 304, 5-(2,3-difluorophenyl)-2-(((2-(dimethylamino)ethyl)amino)methylene) cyclohexane-1,3-dione] |  | < 3
15 | CN(C)CCNC=C1C(=O)CC(c2c(F)cccc2Br)CC1=O (centres unmarked) [Compound 306, 5-(2-bromo-6-fluorophenyl)-2-(((2-(dimethylamino)ethyl)amino)methylene) cyclohexane-1,3-dione] | < 3 | 
16 | O=C1CC(c2ccccc2)CC(=O)C1=CNC(=O)c1ccccn1 (centres unmarked) [Compound 307, N-((2,6-dioxo-4-phenylcyclo-hexylidene)methyl) picolinamide] | 3 to 15 | 
17 | COc1ccccc1C1CC(=O)C(=CNCCN(C)C)C(=O)C1 (centres unmarked) [Compound 310, 2-(((2-(dimethylamino)ethyl)amino)methylene)-5-(2-methoxyphenyl) cyclohexane-1,3-dione] | < 3 | 
18 | CN(C)CCNC=C1C(=O)CC(c2cccc([N+](=O)[O-])c2)CC1=O (centres unmarked) [Compound 311, 2-(((2-(dimethylamino)ethyl)amino)methylene)-5-(3-nitrophenyl) cyclohexane-1,3-dione] | < 3 | 

Now from value to compound, other results behind:

Row | IC50 [1] [µM] | SMILES | IC50 [µM]
19 | < 3 | CN(C)C=C1C(=O)CC(c2cccs2)CC1=O (centres unmarked) [Compound 264, 2-((dimethylamino)methylene)-5-(thiophen-2-yl)cyclohexane-1,3-dione] | 
20 | 3 to 15 | CN(C)C=C1C(=O)CC(c2cccc(C(=O)NCCc3ccccc3)c2)CC1=O (centres unmarked) [Compound 267, 3-(4-((dimethylamino)methylene)-3,5-dioxocyclohexyl)-N-phenethylbenzamide] | 
21 | 3 to 15 | CN(C)C=C1C(=O)CC(c2cccc(C(=O)NCCCCc3ccccc3)c2)CC1=O (centres unmarked) [Compound 269, 3-(4-((dimethylamino)methylene)-3,5-dioxocyclohexyl)-N-(4-phenylbutyl)-benzamide] | 
22 | < 3 | CN(C)C=C1C(=O)CC(c2cccc3[nH]ccc23)CC1=O (centres unmarked) [Compound 271, 2-((dimethylamino)methylene)-5-(1H-indol-4-yl)cyclohexane-1,3-dione] | 
23 | 3 to 15 | CN(C)C=C1C(=O)CC(Cc2ccccc2)CC1=O (centres unmarked) [Compound 272, 5-benzyl-2-((dimethylamino)methylene) cyclohexane-1,3-dione] | 
24 | 15 to 100 | CC(C)CNC(=O)C1CC(=O)C(=CN(C)C)C(=O)C1 (centres unmarked) [Compound 273, 4-((dimethylamino)methylene)-N-isobutyl-3,5-dioxocyclohexane-1-carboxamide] | 
25 | 15 to 100 | CCCNC(=O)C1CC(=O)C(=CN(C)C)C(=O)C1 (centres unmarked) [Compound 274, 4-((dimethylamino)methylene)-3,5-dioxo-N-propylcyclohexane-1-carboxamide] | 
26 | 3 to 15 | CCCCn1cccc1C1CC(=O)C(=CN(C)C)C(=O)C1 (centres unmarked) [Compound 279, 5-(1-butyl-1H-pyrrol-2-yl)-2-((dimethylamino)methylene) cyclohexane-1,3-dione] | 
27 | < 3 | CN(C)C=C1C(=O)CC(c2cccc3c2CCCC3)CC1=O (centres unmarked) [Compound 280, 2-((dimethylamino)methylene)-5-(5,6,7,8-tetrahydro-naphthalen-1-yl)cyclohexane-1,3-dione] | 
28 | < 3 | CN(C)C=C1C(=O)CC(c2ccc3[nH]ccc3c2)CC1=O (centres unmarked) [Compound 281, 2-((dimethylamino)methylene)-5-(1H-indol-5-yl)cyclohexane-1,3-dione] | 
29 | < 3 | CN(C)C=C1C(=O)CC(c2csc3ccccc23)CC1=O (centres unmarked) [Compound 282, 5-(benzo[b]thiophen-3-yl)-2-((dimethylamino)methylene) cyclohexane-1,3-dione] | 
30 | < 3 | CN(C)C=C1C(=O)CC(c2c[nH]c3ccccc23)CC1=O (centres unmarked) [Compound 283, 2-((dimethylamino)methylene)-5-(1H-indol-3-yl)cyclohexane-1,3-dione] | 
31 | 3 to 15 | CN(C)C=C1C(=O)CC(c2ccnc3ccccc23)CC1=O (centres unmarked) [Compound 285, 2-((dimethylamino)methylene)-5-(quinolin-4-yl)cyclohexane-1,3-dione] | 
32 | 3 to 15 | CN(C)C=C1C(=O)CC(c2cncc3ccccc23)CC1=O (centres unmarked) [Compound 287, 2-((dimethylamino)methylene)-5-(isoquinolin-4-yl)cyclohexane-1,3-dione] | 
33 | 3 to 15 | CN(C)C=C1C(=O)CC(c2cccn2Cc2ccccc2)CC1=O (centres unmarked) [Compound 288, 5-(1-benzyl-1H-pyrrol-2-yl)-2-((dimethylamino)methylene) cyclohexane-1,3-dione] | 
34 | 3 to 15 | Cc1ccccc1Cc1ccccc1C1CC(=O)C(=CN(C)C)C(=O)C1 (centres unmarked) [Compound 289, 2-((dimethylamino)methylene)-5-(2-(2-methylbenzyl)phenyl) cyclohexane-1,3-dione] | 
35 | 3 to 15 | Cc1ccc(Cc2ccccc2C2CC(=O)C(=CN(C)C)C(=O)C2)cc1 (centres unmarked) [Compound 291, 2-((dimethylamino)methylene)-5-(2-(4-methylbenzyl)phenyl) cyclohexane-1,3-dione] | 
36 | < 3 | Cc1[nH]c2ccccc2c1C1CC(=O)C(=CN(C)C)C(=O)C1 (centres unmarked) [Compound 296, 2-((dimethylamino)methylene)-5-(2-methyl-1H-indol-3-yl)cyclohexane-1,3-dione] | 
37 | < 3 | Cc1cccc2[nH]cc(C3CC(=O)C(=CN(C)C)C(=O)C3)c12 (centres unmarked) [Compound 298, 2-((dimethylamino)methylene)-5-(4-methyl-1H-indol-3-yl)cyclohexane-1,3-dione] | 
38 | 3 to 15 | Cc1ccc2[nH]cc(C3CC(=O)C(=CN(C)C)C(=O)C3)c2c1 (centres unmarked) [Compound 299, 2-((dimethylamino)methylene)-5-(5-methyl-1H-indol-3-yl)cyclohexane-1,3-dione] | 
39 | < 3 | CN(C)CCNC=C1C(=O)CC(c2ccccc2I)CC1=O (centres unmarked) [Compound 300, 2-(((2-(dimethylamino)ethyl)amino)methylene)-5-(2-iodophenyl) cyclohexane-1,3-dione] | 
40 | < 3 | CN(C)CCNC=C1C(=O)CC(c2ccc(F)cc2F)CC1=O (centres unmarked) [Compound 301, 5-(2,4-difluorophenyl)-2-(((2-(dimethylamino)ethyl)amino)methylene) cyclohexane-1,3-dione] | 
41 | < 3 | CN(C)CCNC=C1C(=O)CC(c2cc(F)ccc2F)CC1=O (centres unmarked) [Compound 302, 5-(2,5-difluorophenyl)-2-(((2-(dimethylamino)ethyl)amino)methylene) cyclohexane-1,3-dione] | 
42 | < 3 | CN(C)CCNC=C1C(=O)CC(c2ccc(F)cc2Br)CC1=O (centres unmarked) [Compound 305, 5-(2-bromo-4-fluorophenyl)-2-(((2-(dimethylamino)ethyl)amino)methylene) cyclohexane-1,3-dione] | 
43 | 3 to 15 | CN(C)CCNC=C1C(=O)CC(c2ccccc2O)CC1=O (centres unmarked) [Compound 308, 2-(((2-(dimethylamino)ethyl)amino)methylene)-5-(2-hydroxyphenyl) cyclohexane-1,3-dione] | 
44 | < 3 | O=C1CC(c2ccc3cc[nH]c3c2)CC(=O)C1=CNCCN1CCN(CCO)CC1 (centres unmarked) [Compound 315, 2-(((2-(4-(2-hydroxyethyl)piperazin-1-yl)ethyl)amino)methylene)-5-(1H-indol-6-yl)cyclohexane-1,3-dione] | 
